Molecule `Cc1cc(OC[C@@H](C)c2sc(-c3ccc(C(F)(F)F)cc3)cc2C)ccc1CCC(=O)O` (single isomer, unassigned) [Example 16, 3-(2-Methyl-4-{2-[3-methyl-5-(4-trifluoromethylphenyl)thiophen-2-yl]propoxy}-phenyl)propionic acid] had a melting point of 126.2 to 132.6 °C.

A word on the melting point: it is the temperature, or range, at which the solid turns liquid.

(Values after patent US7504433B2, “Thiophene derivative PPAR modulators” (Eli Lilly and Company, priority 2003, dated 2009).)
